# Results published in PubChem BioAssay (NCI).
# Where “and” joins values, the source holds several entries; their conditions need not be identical. Identical values can stand only once.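 Grown in 96-well plates, cells were treated for 48 hours with each compound at five concentrations. Insufficient inhibition: endpoint recorded as highest concentration tested. GI50 marks 50% less growth. TGI: concentration producing complete growth inhibition.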
# Legend:
# Assay in all cases: growth of human tumour cells (NCI), 48 h
# A549 NSCLC = test system: A549 NSCLC
# CAKI-1 renal = test system: CAKI-1 renal
# HOP-92 NSCLC = test system: HOP-92 NSCLC
# LOX IMVI melanoma = test system: LOX IMVI melanoma
# NCI-H522 lung = test system: NCI-H522 lung
# PC-3 prostate = test system: PC-3 prostate
# SF-539 CNS = test system: SF-539 CNS
# SK-MEL-5 melanoma = test system: SK-MEL-5 melanoma
# UO-31 renal = test system: UO-31 renal
# RXF 393 renal = test system: RXF 393 renal
Compound,GI50 (A549 NSCLC) [µM],TGI (A549 NSCLC),GI50 (CAKI-1 renal) [µM],TGI (CAKI-1 renal),GI50 (HOP-92 NSCLC) [µM],TGI (HOP-92 NSCLC) [µM],GI50 (LOX IMVI melanoma) [µM],TGI (LOX IMVI melanoma) [µM],GI50 (NCI-H522 lung) [µM],TGI (NCI-H522 lung),GI50 (PC-3 prostate) [µM],TGI (PC-3 prostate) [µM],GI50 (SF-539 CNS) [µM],TGI (SF-539 CNS),GI50 (SK-MEL-5 melanoma) [µM],TGI (SK-MEL-5 melanoma) [µM],GI50 (UO-31 renal) [µM],TGI (UO-31 renal) [µM],TGI (RXF 393 renal),GI50 (RXF 393 renal) [µM]
Cc1cc2c(cc1Cl)SC1=NN(C)C(N(C)C)N1S2(=O)=O (stereo not given),> 100,> 100 µM,> 100,> 100 µM,55,> 100,> 100,> 100,> 100,> 100 µM,> 100,> 100,> 100,> 100 µM,> 100,> 100,98.1,> 100,–,–
Cc1ccc(-c2cc(-c3ccccc3)c(C#N)c(=O)n2C2OC(CO)C(O)C(O)C2O)cc1 (stereo not given),–,> 100 µM,–,–,–,> 100,–,> 100,–,> 100 µM,–,–,–,> 100 µM,–,> 100,–,> 100,> 100 µM,–
Cc1ccc(-c2cc(-c3ccco3)c(C#N)c(=O)n2C2OC(OC(=O)c3ccccc3)C(OC(=O)c3ccccc3)C2OC(=O)c2ccccc2)cc1 (stereo not given),–,> 100 µM,–,> 100 µM,–,59.4,–,> 100,–,> 100 µM,–,–,–,> 100 µM,–,–,–,> 100,88.4 µM,–
N#CCCN(CCC#N)c1ccc(C(Sc2ccccc2)C(NC(=O)c2cc([N+](=O)[O-])ccc2Cl)C(=O)Sc2ccccc2)cc1 (stereo not given),0.954,6.47 µM and 13.2 µM,–,5.71 µM and 6.5 µM,–,18.7,–,5.71,–,5.5 µM and 1.6 µM,–,–,–,4.11 µM and 3.79 µM,–,15.6,1.11,4.77,5.81 µM and 3.28 µM,0.415
C[C@]12CCCC(=O)C1(O)C[C@H](C(=O)O)CC2 (stereo not given in full),–,> 100 µM,–,> 100 µM,–,> 100,–,> 100,–,> 100 µM,–,–,–,> 100 µM,–,> 100,–,> 100,–,–
CC[O-].CC[O-].O=S(=O)([O-])c1ccc([O-])c2ncccc12.O=S(=O)([O-])c1ccc([O-])c2ncccc12.[Ti+4],39.1,> 100 µM,> 100,> 100 µM,–,–,28.3,> 100,32.8,> 100 µM,–,–,67.9,> 100 µM,> 100,> 100,74.4,> 100,–,–
COC(=O)[C@]12CCC(C)[C@H](C)[C@H]1C1=CCC3[C@@]4(C)CC[C@H](OC(C)=O)C(C)(C)C4CC[C@@]3(C)C1(C)C(O)C2 (stereo not given in full),–,> 100 µM,–,> 100 µM,–,> 100,–,> 100,–,> 100 µM,–,–,–,> 100 µM,–,> 100,–,> 100,–,–
NC(N)=NCCC1OC(=O)C2=C1c1c(O)ccc3nccc(c13)O2 (stereo not given),> 100,> 100 µM,> 100,> 100 µM,–,–,> 100,> 100,> 100,> 100 µM,> 100,> 100,> 100,> 100 µM,62.1,> 100,> 100,> 100,> 100 µM,> 100
OC1(c2ccccc2)OC(C#Cc2ccccc2)(c2ccccc2)c2ccccc21 (stereo not given),–,14.8 µM,–,13.9 µM,–,13.2,–,11.2,–,20.3 µM,–,–,–,4.07 µM,–,20.2,–,4.05,5.58 µM,–
Cc1cc(C)c(C(=O)c2no[n+]([O-])c2C(=O)c2c(C)cc(C)c(Br)c2C)c(C)c1Br,–,39.1 µM,–,44.8 µM,–,20.3,–,–,–,23.4 µM,–,–,–,29.1 µM,–,–,–,20.2,19.9 µM,–
C/C(CCc1ccccc1)=N\NC(N)=S,–,> 100 µM,–,> 100 µM,–,> 100,–,> 100,–,–,–,–,–,> 100 µM,–,> 100,–,> 100,> 100 µM,–
O=c1cccc(C2CC(CO)C3CCCCN3C2)[nH]1 (stereo not given),–,> 100 µM,–,> 100 µM,–,> 100,–,> 100,–,> 100 µM,–,> 100,–,> 100 µM,–,> 100,–,> 100,–,–
CCN(CC)C(=S)SC,–,> 100 µM,–,–,–,> 100,–,> 100,–,> 100 µM,–,> 100,–,> 100 µM,–,> 100,–,–,> 100 µM,–
COc1ccc(/C=C2\CCCC(C(NO)c3ccc(OC)cc3)C2=NO)cc1 (stereo not given),–,> 100 µM,–,> 100 µM,–,–,–,–,–,82 µM,–,–,–,83.3 µM,–,47.6,–,75.7,96.7 µM,–
COC1C2C=CC(C2)[C@H]1[N+](=O)[O-] (stereo not given in full),–,> 100 µM,–,> 100 µM,–,> 100,–,> 100,–,> 100 µM,–,–,–,> 100 µM,–,> 100,–,> 100,> 100 µM,–
CC1=C(C(=O)Nc2cccc(Cl)c2)C(c2ccccc2F)C(C(=O)Nc2cccc(Cl)c2)=C(C)N1,–,40.6 µM,–,35.9 µM,–,8.7,–,21.1,–,23.1 µM,–,–,–,30.4 µM,–,29.5,–,20.8,22.4 µM,–
COC(=O)C(CC(=O)Nc1ccc(C)cc1)C(=O)C(=O)Nc1ccccc1C(C)C (stereo not given),–,> 100 µM,–,> 100 µM,–,> 100,–,> 100,–,> 100 µM,–,–,–,> 100 µM,–,> 100,–,> 100,> 100 µM,–
CC(=O)OCC(OC(C)=O)C(OC(C)=O)C(OC(C)=O)C(=O)CNn1c(-c2ccccc2Cl)nc2ccccc2c1=O (stereo not given),–,> 100 µM,–,> 100 µM,–,–,–,> 100,–,> 100 µM,–,–,–,> 100 µM,–,> 100,–,> 100,> 100 µM,–
Cc1ccccc1C1=C(C(=O)Nc2ccc(Cl)c(Cl)c2)NC(=S)NC1N (stereo not given),–,> 100 µM,–,> 100 µM,–,–,–,> 100,–,> 100 µM,–,–,–,> 100 µM,–,> 100,–,> 100,> 100 µM,–
O=C1C(c2ccccc2)=[N+]([O-])c2ccccc21,–,48.7 µM,–,–,–,20.7,–,14.2,–,–,–,27.3,–,32.8 µM,–,23.3,–,29.7,–,–
CC(=O)NC(CCCCNC(=O)NCCCl)C(=O)NCc1ccccc1 (stereo not given),–,> 100 µM,–,> 100 µM,–,> 100,–,–,–,> 100 µM,–,–,–,> 100 µM,–,> 100,–,> 100,> 100 µM,–
